Data reported in publication PMC7774954, “Interactomic affinity profiling by holdup assay: Acetylation and distal residues impact the PDZome-binding specificity of PTEN phosphatase” (PLoS ONE, 2020).
*1 amine or outer side, *2 acyl side, *3 side chain or, on linkers, in order; H or OH if unused. Where a SMILES comes first, the peptide text is derived from it. The star is where a group is joined. X1 = O=C(CCCC[C@@H]1SC[C@@H]2NC(=O)N[C@@H]21)NCCCOCCOCCOCCCN*; Suc = O=C(CCC(=O)[*:2])[*:1]

What was measured:
MAGI2-5 = MAGI2-5 (Homo sapiens, UniProt Q86UL8); experiment: Holdup assay, MAGI2-5; type: binding
Sequence of MAGI2-5 (Q86UL8 whole entry): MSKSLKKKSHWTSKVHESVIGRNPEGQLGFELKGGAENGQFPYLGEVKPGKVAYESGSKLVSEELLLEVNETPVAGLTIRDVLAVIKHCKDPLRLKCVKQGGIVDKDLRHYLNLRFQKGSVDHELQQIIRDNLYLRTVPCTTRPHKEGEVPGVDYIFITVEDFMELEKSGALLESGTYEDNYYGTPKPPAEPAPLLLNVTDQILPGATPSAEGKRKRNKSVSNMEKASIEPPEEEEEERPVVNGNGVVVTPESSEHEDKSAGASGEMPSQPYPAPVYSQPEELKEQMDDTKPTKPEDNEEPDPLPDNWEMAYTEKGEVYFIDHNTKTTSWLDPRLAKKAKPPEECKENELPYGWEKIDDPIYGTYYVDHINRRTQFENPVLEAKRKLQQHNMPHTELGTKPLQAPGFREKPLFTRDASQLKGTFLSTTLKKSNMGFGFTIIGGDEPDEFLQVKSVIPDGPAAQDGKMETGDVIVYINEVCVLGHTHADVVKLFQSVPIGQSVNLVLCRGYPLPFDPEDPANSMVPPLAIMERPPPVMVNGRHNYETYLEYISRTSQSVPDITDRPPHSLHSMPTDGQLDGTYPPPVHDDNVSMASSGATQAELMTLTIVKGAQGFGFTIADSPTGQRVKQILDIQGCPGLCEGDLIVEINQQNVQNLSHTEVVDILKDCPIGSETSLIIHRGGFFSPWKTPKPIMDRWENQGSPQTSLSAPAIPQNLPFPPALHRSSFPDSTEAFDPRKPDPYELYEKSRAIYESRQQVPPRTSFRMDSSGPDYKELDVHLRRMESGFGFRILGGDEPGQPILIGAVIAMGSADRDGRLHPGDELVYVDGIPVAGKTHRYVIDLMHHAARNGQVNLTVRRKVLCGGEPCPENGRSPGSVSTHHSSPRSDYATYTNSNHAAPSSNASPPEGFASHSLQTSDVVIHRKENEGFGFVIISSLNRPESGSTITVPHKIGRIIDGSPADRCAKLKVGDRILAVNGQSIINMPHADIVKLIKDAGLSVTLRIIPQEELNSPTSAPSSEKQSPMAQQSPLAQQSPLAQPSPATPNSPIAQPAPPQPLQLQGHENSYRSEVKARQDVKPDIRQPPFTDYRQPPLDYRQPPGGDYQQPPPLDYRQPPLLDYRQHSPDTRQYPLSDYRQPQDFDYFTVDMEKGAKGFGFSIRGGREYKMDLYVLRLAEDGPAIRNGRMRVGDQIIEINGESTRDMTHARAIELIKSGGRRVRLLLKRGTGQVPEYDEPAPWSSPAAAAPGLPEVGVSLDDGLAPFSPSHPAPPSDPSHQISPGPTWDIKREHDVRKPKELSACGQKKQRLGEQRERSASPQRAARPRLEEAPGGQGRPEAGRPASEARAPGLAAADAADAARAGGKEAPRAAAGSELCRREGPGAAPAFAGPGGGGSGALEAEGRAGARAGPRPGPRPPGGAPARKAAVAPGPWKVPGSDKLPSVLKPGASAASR

FRMPD3-1 = experiment: Holdup assay, FRMPD3-1; type: binding, human
ARHGEF11-1 = biological target: T1, ARHGEF11-1 (Homo sapiens, UniProt O15085); experiment: Holdup assay, ARHGEF11-1; type: binding
T1 sequence (O15085 47-126): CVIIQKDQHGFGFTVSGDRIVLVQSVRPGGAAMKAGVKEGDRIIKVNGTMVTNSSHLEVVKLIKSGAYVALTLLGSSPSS

DLG5-3 = experiment: Holdup assay, DLG5-3; type: binding, human
NHERF2 PDZ 2 = biological target: T2, NHERF2 PDZ 2 (Homo sapiens, UniProt Q15599); experiment: Holdup assay, NHERF2-2; type: binding; settings: for BI: PDZ domain NHERF2-2 (gene MPDZ, 9)
T2 construct: made in house; host or cells: E. coli
T2 sequence (Q15599 150-230 limits assumed): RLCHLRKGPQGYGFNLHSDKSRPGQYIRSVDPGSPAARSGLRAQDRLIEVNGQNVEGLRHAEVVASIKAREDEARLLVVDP
Protocol: (§1) The holdup assay was performed on a Tecan freedom Evo200 robot with 384-well plates in singlicate for the three 11-mer PTEN variants and the 13-mer PTEN peptide as described in [31, 32]. Briefly, prior to interaction assay, 2.5 μL of streptavidin resin was saturated in each well with 20 μL of biotinylated PBM peptides (42 μM) and then washed twice with an excess of free biotin, while the reference resin was incubated only with biotin. Right before the holdup experiment, the PDZ library was spiked with an internal standard of lysozyme. Then, the biotin- or PBM-saturated resin was incubated, each in a distinct well of a 384-well plate, with complete cell lysates diluted so that the concentration of the tag-PDZ present in the crude extract is adjusted at 4 μM. After a sufficient time to reach complex equilibrium (15 min.), a fast and mild filtration step is performed and the tag-PDZ concentrations were measured by capillary electrophoresis instrument (LabChip GXII, PerkinElmer, Massachusets, USA). Standard markers were used to convert migration time into molecular weight on the LabChip software and inappropriate molecular weight markers were corrected or excluded.
(§2) For filtered data, the BI was extracted with the following equation (Eq 1) that estimates the depleted fraction after superimposition of the sample and reference electropherograms: BI=Iref−Ilig/Iref (1) where Iref and Ilig are the intensities of the tag-PDZ peaks measured, for each PDZ domain/PBM peptide interaction pair, in the biotin reference and the PBM electropherograms, respectively.
(§3) BIs were transformed into dissociation constants (KD) using the following formula: KD=([PDZtot]−BI·[PDZtot])·([PBMtot]−BI·[PDZtot])/BI·[PDZtot] (2) where [PDZtot] and [PBMtot] correspond to the total concentrations of the PDZ domain (usually around 4 μM) and the PBM peptide used during the assay. Since the PBMtot concentration in the resin during the holdup assay parameter may differ from one peptide to another and remains unknown, it is impossible to directly convert BI values into KD constants. We systematically determined the KD constants for a subset of PDZ/PBM pairs by competitive FP. […] For each PBM, the average peptide concentration was calculated after outlier rejection based on the absolute distances from the median as compared to three times the standard deviation (3σ rule), with never more than 2 values rejected.

MAST2 PDZ 1 = biological target: T3, MAST2 PDZ 1 (Homo sapiens, UniProt Q6P0Q8); experiment: Holdup assay, MAST2-1; type: binding; settings: for BI: MAST2-1
T3 construct: made in house; host or cells: E. coli
T3 sequence (Q6P0Q8 1104-1192 limits assumed): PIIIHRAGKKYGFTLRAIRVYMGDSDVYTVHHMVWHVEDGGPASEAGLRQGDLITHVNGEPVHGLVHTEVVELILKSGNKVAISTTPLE
Protocol: as §1, §2, §3

HTRA2-1 = experiment: Holdup assay, HTRA2-1; type: binding, human
DLG3-3 = experiment: Holdup assay, DLG3-3; type: binding, human
DLG3-2 = biological target: T4, DLG3-2 (Homo sapiens, UniProt Q92796); experiment: Holdup assay, DLG3-2; type: binding
T4 sequence (Q92796 244-330): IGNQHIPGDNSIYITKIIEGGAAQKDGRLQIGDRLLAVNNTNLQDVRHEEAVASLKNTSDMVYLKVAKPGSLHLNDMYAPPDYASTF

PTPN13 PDZ 2 = biological target: T5, PTPN13 PDZ 2 (Homo sapiens, UniProt Q12923); experiment: Holdup assay, PTPN13-2; type: binding; settings: for BI: PDZ domain PTPN13-2
T5 construct: made in house; host or cells: E. coli
T5 sequence (Q12923 1368-1452 limits assumed): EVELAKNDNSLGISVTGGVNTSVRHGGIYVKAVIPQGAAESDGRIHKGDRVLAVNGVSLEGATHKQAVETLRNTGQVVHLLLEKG
Protocol: as §1, §2, §3

GRIP1-2 = experiment: Holdup assay, GRIP1-2; type: binding, human
SCRIB-3 = biological target: T6, SCRIB-3 (Homo sapiens, UniProt Q14160); experiment: Holdup assay, SCRIB-3; type: binding; settings: PDZ domain SCRIB-3
T6 construct: Representative holdup data recorded for three PDZ domains (MAST2-1, HTRA1-1, SCRIB-3); made in house; host or cells: E. coli
T6 sequence (Q14160 1004-1093 limits assumed): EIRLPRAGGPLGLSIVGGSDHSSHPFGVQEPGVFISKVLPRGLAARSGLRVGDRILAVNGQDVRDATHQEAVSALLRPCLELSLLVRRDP
Protocol: as §1, §2

HTRA4-1 = experiment: Holdup assay, HTRA4-1; type: binding, human
LNX2-1 = experiment: Holdup assay, LNX2-1; type: binding, human
INTU-1 = experiment: Holdup assay, INTU-1; type: binding, human
MAGI1-1 = experiment: Holdup assay, MAGI1-1; type: binding, human
MPDZ-1 = experiment: Holdup assay, MPDZ-1; type: binding, human
GRIP2-3 = experiment: Holdup assay, GRIP2-3; type: binding, human
LIN7B-1 = experiment: Holdup assay, LIN7B-1; type: binding, human
MAST4-1 = experiment: Holdup assay, MAST4-1; type: binding, human
LRRC7-1 = LRRC7-1 (Homo sapiens, UniProt Q96NW7); experiment: Holdup assay, LRRC7-1; type: binding
Sequence of LRRC7-1 (Q96NW7 with tags, fused parts or gaps): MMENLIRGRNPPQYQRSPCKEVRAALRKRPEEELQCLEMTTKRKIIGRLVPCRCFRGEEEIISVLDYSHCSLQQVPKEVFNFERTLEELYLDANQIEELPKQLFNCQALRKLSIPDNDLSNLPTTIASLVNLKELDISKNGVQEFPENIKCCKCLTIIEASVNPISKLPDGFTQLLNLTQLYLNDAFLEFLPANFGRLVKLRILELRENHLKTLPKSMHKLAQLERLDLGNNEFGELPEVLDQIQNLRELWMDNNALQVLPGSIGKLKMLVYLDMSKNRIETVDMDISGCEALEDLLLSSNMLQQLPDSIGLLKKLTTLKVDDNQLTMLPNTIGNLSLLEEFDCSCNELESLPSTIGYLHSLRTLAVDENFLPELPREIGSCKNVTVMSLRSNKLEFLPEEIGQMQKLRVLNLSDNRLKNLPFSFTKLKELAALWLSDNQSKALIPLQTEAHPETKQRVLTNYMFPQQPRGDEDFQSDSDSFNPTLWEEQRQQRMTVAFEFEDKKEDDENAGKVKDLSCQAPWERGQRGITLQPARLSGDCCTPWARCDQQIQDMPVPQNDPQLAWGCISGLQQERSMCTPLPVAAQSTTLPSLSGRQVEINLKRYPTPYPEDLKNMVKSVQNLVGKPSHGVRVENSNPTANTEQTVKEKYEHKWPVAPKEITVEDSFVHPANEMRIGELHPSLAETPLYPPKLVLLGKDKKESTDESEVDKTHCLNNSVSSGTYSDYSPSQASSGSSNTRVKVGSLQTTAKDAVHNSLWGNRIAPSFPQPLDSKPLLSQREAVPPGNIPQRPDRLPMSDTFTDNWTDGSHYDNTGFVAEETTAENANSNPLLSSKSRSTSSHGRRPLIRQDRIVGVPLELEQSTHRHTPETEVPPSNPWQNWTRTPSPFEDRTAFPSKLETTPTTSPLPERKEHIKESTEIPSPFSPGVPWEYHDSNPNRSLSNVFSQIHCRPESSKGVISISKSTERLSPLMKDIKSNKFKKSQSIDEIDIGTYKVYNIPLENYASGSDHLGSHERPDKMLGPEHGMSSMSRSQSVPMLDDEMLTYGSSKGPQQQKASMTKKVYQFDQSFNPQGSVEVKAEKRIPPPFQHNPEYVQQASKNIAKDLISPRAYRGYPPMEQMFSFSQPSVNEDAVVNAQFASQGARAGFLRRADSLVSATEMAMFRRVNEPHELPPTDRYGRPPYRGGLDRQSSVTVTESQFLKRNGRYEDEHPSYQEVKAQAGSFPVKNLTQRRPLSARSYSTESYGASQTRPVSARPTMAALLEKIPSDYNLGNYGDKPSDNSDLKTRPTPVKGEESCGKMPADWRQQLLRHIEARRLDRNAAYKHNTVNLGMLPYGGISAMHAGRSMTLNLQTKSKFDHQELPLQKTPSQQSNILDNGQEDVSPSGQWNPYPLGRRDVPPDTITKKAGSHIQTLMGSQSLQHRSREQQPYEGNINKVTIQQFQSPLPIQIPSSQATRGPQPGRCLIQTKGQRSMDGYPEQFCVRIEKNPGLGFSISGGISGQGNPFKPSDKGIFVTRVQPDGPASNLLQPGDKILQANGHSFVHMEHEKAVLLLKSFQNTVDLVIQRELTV

MAGI2 PDZ 2 = biological target: T7, MAGI2 PDZ 2 (Homo sapiens, UniProt Q86UL8); experiment: Holdup assay, MAGI2-2; type: binding; settings: for BI: MAGI2-2
T7 construct: made in house; host or cells: E. coli
T7 sequence (Q86UL8 426-510 limits assumed): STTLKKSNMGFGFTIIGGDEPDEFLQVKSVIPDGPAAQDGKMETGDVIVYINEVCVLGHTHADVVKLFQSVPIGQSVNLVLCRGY
Protocol: as §1, §2, §3

Row | SMILES | BI (MAGI2-5) | LogKD (MAGI2-5) | BI (FRMPD3-1) | BI (ARHGEF11-1) | BI (DLG5-3) | BI (NHERF2 PDZ 2) | Kd (MAST2 PDZ 1) [µM] | BI (MAST2 PDZ 1) | BI (HTRA2-1) | BI (DLG3-3) | BI (DLG3-2) | BI (PTPN13 PDZ 2) | BI (GRIP1-2) | BI (SCRIB-3) | BI (HTRA4-1) | BI (LNX2-1) | BI (INTU-1) | BI (MAGI1-1) | BI (MPDZ-1) | BI (GRIP2-3) | other results
1 | CC[C@H](C)[C@H](NC(=O)[C@H](CCC(N)=O)NC(=O)[C@@H](NC(=O)[C@H](Cc1c[nH]cn1)NC(=O)[C@H](CCC(N)=O)NC(=O)[C@H](CC(=O)O)NC(=O)[C@H](CCC(=O)O)NC(=O)[C@H](CC(=O)O)NC(=O)[C@H](Cc1ccccc1)NC(=O)[C@@H]1CCCN1C(=O)CCC(=O)NCCCOCCOCCOCCCNC(=O)CCCC[C@@H]1SC[C@@H]2NC(=O)N[C@@H]21)[C@@H](C)O)C(=O)N[C@H](C(=O)N[C@@H](CCCCN)C(=O)N[C@H](C(=O)O)C(C)C)[C@@H](C)O [PTEN_13] ({X1-Suc}-PFDEDQHTQITKV-OH) | 0.046 | 3.826 | -0.096 | 0.114 | 0.002 | 0.117 | 1.28 | 0.88 | -0.097 | -0.054 | 0.089 | 0.482 | 0.009 | -0.068 | 0.011 | -0.046 | -0.039 | -0.027 | 0.011 | 0.027 | LogKD (DLG3-2): 3.826; Kd (PTPN13 PDZ 2): 16.2 µM; BI (LIN7B-1): -0.079; BI (MAST4-1): 0.058; BI (LRRC7-1): 0.042; LogKD (LRRC7-1): 3.826; BI (MAGI2 PDZ 2): 0.082
2 | CC[C@H](C)[C@H](NC(=O)[C@H](CCC(N)=O)NC(=O)[C@@H](NC(=O)[C@H](Cc1c[nH]cn1)NC(=O)[C@H](CCC(N)=O)NC(=O)[C@H](CC(=O)O)NC(=O)[C@H](CCC(=O)O)NC(=O)[C@H](CC(=O)O)NC(=O)CCC(=O)NCCCOCCOCCOCCCNC(=O)CCCC[C@@H]1SC[C@@H]2NC(=O)N[C@@H]21)[C@@H](C)O)C(=O)N[C@H](C(=O)N[C@@H](CCCNC(=N)N)C(=O)N[C@H](C(=O)O)C(C)C)[C@@H](C)O [PTEN_KR] ({X1-Suc}-DEDQHTQITRV-OH) | -0.074 | 3.655 | -0.082 | 0.18 | -0.084 | 0.523 | 6.66 | 0.767 | -0.042 | 0.067 | 0.277 | 0.138 | -0.06 | 0.022 | 0.004 | 0.072 | -0.043 | -0.057 | -0.039 | 0.027 | LogKD (FRMPD3-1): 3.655; LogKD (DLG5-3): 3.655; Kd (NHERF2 PDZ 2): 20.9 µM; LogKD (HTRA2-1): 3.655; LogKD (DLG3-3): 3.655; Kd (DLG3-2): 62.4 µM; LogKD (GRIP1-2): 3.655; LogKD (HTRA4-1): 3.655; LogKD (LNX2-1): 3.655; LogKD (INTU-1): 3.655; LogKD (MAGI1-1): 3.655; LogKD (MPDZ-1): 3.655; LogKD (GRIP2-3): 3.655; BI (LIN7B-1): -0.078; LogKD (LIN7B-1): 3.655; BI (MAST4-1): -0.027; LogKD (MAST4-1): 3.655; BI (LRRC7-1): 0.14; Kd (MAGI2 PDZ 2): 29.2 µM; BI (MAGI2 PDZ 2): 0.443
